Data: patent publication US6242438A, “3-Azetidinylalkylpiperidines or -pyrrolidines as tachykinin antagonists” (Pfizer Inc., priority 1996, dated 2001)

Target: T1, NK3 receptor (Cavia porcellus, UniProt P30098)
T1 construct: contractile effects of the selective NK3 receptor agonist senktide in the guinea-pig ileum; from tissue; host or cells: guinea-pig ileum
T1 sequence (P30098 1-440): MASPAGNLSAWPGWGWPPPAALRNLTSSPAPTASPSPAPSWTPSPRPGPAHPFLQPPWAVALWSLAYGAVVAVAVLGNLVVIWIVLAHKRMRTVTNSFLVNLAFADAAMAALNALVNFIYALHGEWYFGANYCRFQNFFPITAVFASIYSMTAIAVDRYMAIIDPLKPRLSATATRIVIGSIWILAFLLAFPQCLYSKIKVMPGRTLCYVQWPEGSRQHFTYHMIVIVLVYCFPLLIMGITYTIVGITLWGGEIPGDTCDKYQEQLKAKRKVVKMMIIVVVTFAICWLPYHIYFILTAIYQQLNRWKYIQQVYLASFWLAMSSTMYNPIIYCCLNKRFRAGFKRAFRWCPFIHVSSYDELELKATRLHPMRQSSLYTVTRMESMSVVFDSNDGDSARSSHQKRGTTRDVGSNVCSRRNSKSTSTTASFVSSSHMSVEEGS
Assay: NK3 receptor antagonist activity in vitro: antagonism of contractile effects of senktide in guinea-pig ileum
Conditions: antagonism of contractile effects of the selective NK3 receptor agonist senktide, read-out: pIC50 for NK3 activity (converted)
Source text: The compounds of the formula (I) and their salts can be tested for NK3 receptor antagonist activity, in vitro, by testing their ability to antagonise the contractile effects of the selective NK3 receptor agonist senktide in the guinea-pig ileum using the method of Maggi et al, Br. J. Pharmacol., 101, 996-1000 (1 990).

IC50: 3.98 nM
SMILES: NS(=O)(=O)N1CCN(C2CN(CCCC3(c4ccc(Cl)c(Cl)c4)CCCN(C(=O)c4ccccc4)C3)C2)CC1 (stereo not shown) [Example 2]
